Data set [1] deals with Radical scavenging activity. Briefly: Antioxidant activity assessed as DPPH free radical scavenging activity at 1.85 mM after 10 mins relative to control. The data set is classed as functional.
A short description of data set [2]: Antioxidant activity against linoleic acid lipid peroxidation at 90 uM by ferric thiocyanate method. The data set is classed as functional.
Data set [3] in a line: Antioxidant activity against linoleic acid lipid peroxidation at 90 uM after 48 hrs by ferric thiocyanate method. It counts as functional.
In data set [4] the target is T1, Tyrosinase (Agaricus bisporus) (UniProt O42713).
T1 sequence (whole entry): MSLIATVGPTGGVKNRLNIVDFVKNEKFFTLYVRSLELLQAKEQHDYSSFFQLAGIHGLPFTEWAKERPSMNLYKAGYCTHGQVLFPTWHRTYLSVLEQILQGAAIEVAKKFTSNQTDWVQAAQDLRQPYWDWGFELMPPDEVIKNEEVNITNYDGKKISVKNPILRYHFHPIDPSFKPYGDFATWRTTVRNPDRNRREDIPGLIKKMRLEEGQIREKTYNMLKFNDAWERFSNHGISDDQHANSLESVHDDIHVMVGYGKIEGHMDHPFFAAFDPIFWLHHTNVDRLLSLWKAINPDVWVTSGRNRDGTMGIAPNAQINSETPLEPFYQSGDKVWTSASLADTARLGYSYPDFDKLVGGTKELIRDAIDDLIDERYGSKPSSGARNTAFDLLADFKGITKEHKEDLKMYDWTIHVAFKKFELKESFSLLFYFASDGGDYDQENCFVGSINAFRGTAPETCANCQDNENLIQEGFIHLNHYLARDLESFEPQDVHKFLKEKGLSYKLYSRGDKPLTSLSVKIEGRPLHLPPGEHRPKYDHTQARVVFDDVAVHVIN
The data set can be described thus: Inhibition of mushroom tyrosinase using L-DOPA as substrate at 50 uM after 10 mins by UV absorbance method.

The nature of data set [5]: Cytotoxicity against mouse Mel-Ab cells up to 200 uM after 24 hrs by crystal violet staining based ELISA. The data set is classed as cell-based.
For the next data set, the system named is Mel-Ab. Briefly: Inhibition of melanogenesis in mouse Mel-Ab cells assessed as reduction of melanin production at 100 uM after 4 days by ELISA reader. It counts as functional, cell-based.

These results are taken from ChEMBL document CHEMBL1821592, “Dual effects of caffeoyl-amino acidyl-hydroxamic acid as an antioxidant and depigmenting agent” (Bioorg Med Chem Lett, 2011).

The source made the active and inactive calls. The calls are words filed in the database; no cut-off is given here.

With `O=C(O)[C@@H]1CCCN1C(=O)/C=C/c1ccc(O)c(O)c1`, the Activity in data set [1] worked out at 20%. Also, the outcome in data set [2] and in data set [3] was Active.
For `O=C(/C=C/c1ccc(O)c(O)c1)NC(Cc1ccccc1)C(=O)NO` (stereo not drawn), in data set [4], the inhibition entry was “Active”.
On to `O=C(O)/C=C/c1ccc(O)c(O)c1`, for which, in data set [1], the Activity amounted to 52.4%. Also, in data set [4], the inhibition entry is “inactive”.
`O=C(NO)[C@@H]1CCCN1C(=O)/C=C/c1ccc(O)c(O)c1`: the Activity in data set [1] is 77.2%; in data set [5], “Non-toxic”. Moreover, the result in data set [2] and in data set [3] was Active. The inhibition result (in data set [4]; in the data set with Mel-Ab) was “Active” in each case.
In the case of `O=C(/C=C/c1ccc(O)c(O)c1)N[C@@H](Cc1ccccc1)C(=O)NO`, the Activity in data set [1] worked out at 40.9%.
`O=C(/C=C/c1ccc(O)c(O)c1)NCC(=O)NO`: in data set [1], the Activity stood at 39.4%. In addition, the inhibition result in data set [4] is “Active”.
`CC(C)C[C@H](NC(=O)/C=C/c1ccc(O)c(O)c1)C(=O)NO`: the Activity in data set [1] came to 51.1%. Moreover, the inhibition result in data set [4] was “Active”.
Consider `C[C@H](NC(=O)/C=C/c1ccc(O)c(O)c1)C(=O)NO`, for which the Activity in data set [1] came out at 40.7%. Further, the inhibition result in data set [4] was “Active”.
Turning to `O=C(/C=C/c1ccc(O)c(O)c1)N[C@H](C(=O)NO)c1ccccc1`, in data set [1], the Activity amounted to 56.2%.
On the same count and under the same terms, as for `O=C(/C=C/c1ccc(O)c(O)c1)N[C@H](Cc1ccccc1)C(=O)NO`, the figure is 47.6%.
Regarding `O=C(/C=C/c1ccc(O)c(O)c1)NCCC(=O)NO`, the Activity in data set [1] was found to be 42.2%. Besides, in data set [4], the inhibition entry was “Active”.
